Laboratory results as given in ChEMBL document CHEMBL1126432, “Synthesis and biological activity of carbocyclic derivatives of the potent antiviral agent 9-[2-(phosphonomethoxy)ethyl]guanine (PMEG)” (Bioorg Med Chem Lett, 1992).
Converted amounts (≈) assume the structure as drawn.

What was measured:
Format in all cases: functional, cell-based
CCRF-CEM [1] = assay: In vitro antiviral activity expressed as IC50 against HIV (CEM cells); 11-25; details: Homo sapiens
CCRF-CEM [2] = assay: In vitro antiviral activity expressed as IC50 against HIV (CEM cells); details: Homo sapiens
Vero = assay: In vitro antiviral activity expressed as IC50 against herpes simplex virus type 2 (HSV-2) in vero cells; details: Chlorocebus sabaeus

IC50 (CCRF-CEM [1]) [µg/mL] | IC50 (CCRF-CEM [2]) [µg/mL] | Structure (SMILES) | IC50 (Vero) [µg/mL]
11 (≈ 36.3 µM) | – | CC(Cn1cnc2c(=O)[nH]c(N)nc21)OCP(=O)(O)O (stereo not drawn) | –
– | 0.2 (≈ 0.692 µM) | Nc1nc2c(ncn2CCOCP(=O)(O)O)c(=O)[nH]1 [GS-438] | 0.7 (≈ 2.42 µM)
– | 3 (≈ 9.89 µM) | CC(COCP(=O)(O)O)n1cnc2c(O)nc(N)nc21 (stereo not drawn) | –
– | > 100 | Nc1nc(O)c2ncn([C@H]3CCC[C@@H]3OCP(=O)(O)O)c2n1 | > 100
– | 20 (≈ 60.7 µM) | Nc1nc(O)c2ncn([C@H]3CCC[C@H]3OCP(=O)(O)O)c2n1 | > 100
– | > 100 | Nc1nc(O)c2ncn([C@H]3CC[C@@H](OCP(=O)(O)O)C3)c2n1 | > 100

Structure (SMILES) | IC50 (CCRF-CEM [1]) [µg/mL] | IC50 (CCRF-CEM [2]) [µg/mL] | IC50 (Vero) [µg/mL]
Nc1nc(O)c2ncn([C@@H]3C=C[C@H](OCP(=O)(O)O)C3)c2n1 | – | 26 (≈ 79.5 µM) | –
Nc1nc(O)c2ncn([C@H]3C=C[C@@H](OCP(=O)(O)O)C3)c2n1 | – | 66 (≈ 202 µM) | > 100
